Molecules are shown by their SMILES.

For the first test, the target named is T1, Human Polymorphonuclear Leukocyte Elastase (Homo sapiens, UniProt P08246).
T1 sequence (P08246 30-267): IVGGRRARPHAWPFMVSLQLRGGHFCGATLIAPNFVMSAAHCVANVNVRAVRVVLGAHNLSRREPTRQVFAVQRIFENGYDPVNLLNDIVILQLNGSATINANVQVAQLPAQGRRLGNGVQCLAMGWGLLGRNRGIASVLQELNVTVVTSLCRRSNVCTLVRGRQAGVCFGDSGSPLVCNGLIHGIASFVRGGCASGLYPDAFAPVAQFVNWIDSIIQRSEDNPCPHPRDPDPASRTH
Put plainly: Inhibition of human polymorphonuclear leukocyte elastase via hydrolysis of Boc-AAPAN or Boc-AAPVN. Type of test: biochemical. The note with it: pH 7.5, Table I; second order rate constant for inactivation of the enzyme; read-out: Kobs /[I]. The protocol: Enzyme Assays for the Inhibition of Human Polymorphonuclear Leukocyte Elastase Via Hydrolysis of N-t-Boc-alanyl-alanyl-prolylalanine-p-nitroanilide (Boc-AAPAN) or […] (Boc-AAPVN) Reagent:
0.05M TES (N-tris[hydroxymethyl]methyl-2-amino-ethanesulfonic acid) Buffer, pH 7.5.
0.2 mM Boc-AAPAN or Boc-AAPVN.
To prepare substrate, the solid was first dissolved in 10.0 ml DMSO. Buffer at pH 7.5 was then added to a final volume of 100 ml.
Crude extract of human polymorphonuclear leukocytes (PMN) containing elastase activity.
Inhibitors (azetidinones) to be tested dissolved in DMSO just before use.
To 1.0 ml of 0.2 mM Boc-AAPAN in a cuvette, 0.01-0.1 ml of DMSO with or without inhibitor was added. After mixing, a measurement was taken at 410 mμ to detect any spontaneous hydrolysis due to presence of test compound. 0.05 Milliliters of PMN extract was then added and the ΔOD/min at 410 mμ was measured and recorded. Beckman model 35 spectrophotometer was used.
Results in Tables I to III were reported as ID50, effective dosage in micrograms per milliliter (μg/ml) for 50% inhibition of the enzyme activity 2 minutes after zero time.
Results were also expressed as Ki, the micromolar concentration of the inhibitor (μM) giving 50% of the control enzyme activity; or as ^k obs/I which is the second order rate constant in per mole per second for inactivation of the enzyme.
The elastase activity in the crude PMN extract may vary from one preparation to another. A control of each new batch is run, and the volume added in the assay procedure is adjusted according to activity.
Take `CCC[C@@H](NC(=O)N1C(=O)C(CC)(CC)[C@@H]1Oc1ccc(CN)cc1)c1ccc(C)cc1` [R4=H; R5=H; R6=H, (4S)-3,3-Diethyl-1-[(R)-α-(n-propyl)-4-(methyl)benzylaminocarbonyl]-4-[(4-aminomethyl)phenoxy]azetidin-2-one]: the kinact/KI stood at 325000 M⁻¹ s⁻¹.

Take `CCC[C@@H](NC(=O)N1C(=O)C(CC)(CC)[C@@H]1Oc1ccc(C(C)N2CCC[C@H]2COC)cc1)c1ccc(C)cc1` (single isomer, unassigned) [R4+R5=--CH2 CH2 CH2 CH(S--CH2 OMe)--; R6=Me (isomer A)]: the kinact/KI is 960000 M⁻¹ s⁻¹.

As for `CCC[C@@H](NC(=O)N1C(=O)C(CC)(CC)[C@@H]1Oc1ccc(CN2CCN(C(=O)OC)CC2)cc1)c1ccc(C)cc1`, the kinact/KI worked out at 730000 M⁻¹ s⁻¹.

Consider `CCC[C@@H](NC(=O)N1C(=O)C(CC)(CC)[C@@H]1Oc1ccc(CN2CCC[C@@H]2CO)cc1)c1ccc(C)cc1`, for which the kinact/KI stood at 725000 M⁻¹ s⁻¹.

Turning to `CCC[C@@H](NC(=O)N1C(=O)C(CC)(CC)[C@@H]1Oc1ccc(CN(C)CCOC(=O)C(C)C)cc1)c1ccc(C)cc1` [R4=Me; R5=CH2 CH2 OCOCHMe2; R6=H], the kinact/KI is 630000 M⁻¹ s⁻¹.

In the case of `CCC[C@@H](NC(=O)N1C(=O)C(CC)(CC)[C@@H]1Oc1ccc(CN(C)CCSC)cc1)c1ccc(C)cc1` [R4=Me; R5=CH2 CH2 SMe; R6=H], the kinact/KI came to 675000 M⁻¹ s⁻¹.

On to `CCC[C@@H](NC(=O)N1C(=O)C(CC)(CC)[C@@H]1Oc1ccc(CN(CC)CCOCCOC)cc1)c1ccc(C)cc1` [R4=Et; R5=CH2 CH2 OCH2 CH2 OMe; R6=H], for which the kinact/KI turned out to be 1.3e+06 M⁻¹ s⁻¹.

In the case of `CCC[C@@H](NC(=O)N1C(=O)C(CC)(CC)[C@@H]1Oc1ccc(CNC(=O)Cc2ccncc2)cc1)c1ccc(C)cc1` [R4=H; R5=COCH2-4-pyridyl; R6=H, (4S)-3,3-Diethyl-1-[(R)-α-(n-propyl)-4-(methyl)benzylaminocarbonyl]-4-[(4-((4-pyridyl)methylcarbonyl)aminomethyl)phenoxy]azetidin-2-one], the kinact/KI came to 1.7e+06 M⁻¹ s⁻¹.

For `CCC[C@@H](NC(=O)N1C(=O)C(CC)(CC)[C@@H]1Oc1ccc(C(C)NCCOC)cc1)c1ccc(C)cc1` (stereo partly drawn) [R4=H; R5=CH2 CH2 OMe; R6=Me], the kinact/KI worked out at 680000 M⁻¹ s⁻¹.

As to `CCC[C@@H](NC(=O)N1C(=O)C(CC)(CC)[C@@H]1Oc1ccc(C(C)NCCO)cc1)c1ccc(C)cc1` (stereo partly drawn) [R4=H; R5=CH2 CH2 OH; R6=Me], the kinact/KI is 660000 M⁻¹ s⁻¹.

For the molecule `CCC[C@@H](NC(=O)N1C(=O)C(CC)(CC)[C@@H]1Oc1ccc(CNC(=O)NCc2ccccc2)cc1)c1ccc(C)cc1` [R4=H; R5=CONH Bn; R6=H, (4S)-3,3-Diethyl-1-[(R)-α-(n-propyl)-4-(methyl)benzylaminocarbonyl]-4-[(4-((N-benzyl)aminocarbonyl)aminomethyl)phenoxy]azetidin-2-one], the kinact/KI amounted to 1.6e+06 M⁻¹ s⁻¹.

Still in this test, the particulars now being: pH 7.5, Table III; second order rate constant for inactivation of the enzyme; read-out: Kobs /[I].
With `CCC[C@@H](NC(=O)N1C(=O)C(CC)(CC)[C@@H]1Oc1ccc(CN(C)C(C)COC)c(OC)c1)c1ccc(C)cc1` (stereo partly drawn), the kinact/KI came out at 1.65e+06 M⁻¹ s⁻¹.

On to `CCC[C@@H](NC(=O)N1C(=O)C(CC)(CC)[C@@H]1Oc1ccc(CN(CC)CCOC)cc1)c1ccc2occc2c1`, for which the kinact/KI turned out to be 1.1e+06 M⁻¹ s⁻¹.

Consider `CCC[C@@H](NC(=O)N1C(=O)C(CC)(CC)[C@@H]1Oc1ccc(CN(CC)C(C)COC)cc1)c1ccc2c(c1)OCO2` (stereo partly drawn), for which the kinact/KI turned out to be 1.6e+06 M⁻¹ s⁻¹.

In the case of `CCC[C@@H](NC(=O)N1C(=O)C(CC)(CC)[C@@H]1Oc1ccc(CNC2CC2)cc1)c1ccc2c(c1)OCO2`, the kinact/KI stood at 1.6e+06 M⁻¹ s⁻¹.

With `CCC[C@@H](NC(=O)N1C(=O)C(CC)(CC)[C@@H]1Oc1ccc(C(COC)N(C)CC)cc1)c1ccc2c(c1)OCO2` (mixture of isomers) [3,3-Diethyl-1-[(R)-α-(n-propyl)-(3,4-dioxomethylene)benzylaminocarbonyl]-4-(S)-[4-{1-(RS)-(N-ethyl-N-(methyl)amino)-2-methoxyethyl}phenoxy]azetidin-2-one], the kinact/KI came out at 1.65e+06 M⁻¹ s⁻¹.

Regarding `CCC[C@@H](NC(=O)N1C(=O)C(CC)(CC)[C@@H]1Oc1ccc(CN(C)C(C)COC)c(Cl)c1)c1ccc(C)cc1` (stereo partly drawn), the kinact/KI was found to be 650000 M⁻¹ s⁻¹.

Regarding `CCC[C@@H](NC(=O)N1C(=O)C(CC)(CC)[C@@H]1Oc1ccc(CN(CC)CCOC)cc1)c1ccc(OCC)cc1`, the kinact/KI turned out to be 1.12e+06 M⁻¹ s⁻¹.

These data come from US5952321A, “Substituted azetidinones as anti-inflammatory and antidegenerative agents” (Merck & Co., Inc., priority 1996, dated 1999).
